Values of other authors as cited in patent publication US6565840B1, “Monomeric compositions effective as wound closure devices” (Closure Medical Corporation, priority 1996, dated 2003).

For CC(=O)C(C(C)=O)C(C)=O [triacetylmethane], the pKa is listed as 5.9.
